According to PubChem BioAssay (NCI):
Values joined by “and” are separate entries in the source; they are usually repeats but may differ in a detail not shown here. Equal entries are not always repeated.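 Assay format: 96-well plates, 48-hour exposure. The concentration for 50% growth inhibition is given as GI50. The concentration for full growth arrest is given as TGI.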

Columns and labels:
Assay in all cases: NCI anticancer screen, dose series, 48 h
A498 renal = test system: A498 renal
BT-549 breast = test system: BT-549 breast
CCRF-CEM leukemia = test system: CCRF-CEM leukemia
HCC-2998 colon = test system: HCC-2998 colon
K-562 leukemia = test system: K-562 leukemia
MDA-MB-231 breast = test system: MDA-MB-231 breast
NCI-H23 lung = test system: NCI-H23 lung
NCI-H522 lung = test system: NCI-H522 lung
SN12C renal = test system: SN12C renal
T-47D breast = test system: T-47D breast

| SMILES | GI50 (A498 renal) | TGI (A498 renal) | GI50 (BT-549 breast) | TGI (BT-549 breast) | GI50 (CCRF-CEM leukemia) | TGI (CCRF-CEM leukemia) | GI50 (HCC-2998 colon) | TGI (HCC-2998 colon) | GI50 (K-562 leukemia) | TGI (K-562 leukemia) | GI50 (MDA-MB-231 breast) | TGI (MDA-MB-231 breast) | GI50 (NCI-H23 lung) | TGI (NCI-H23 lung) | GI50 (NCI-H522 lung) | TGI (NCI-H522 lung) | GI50 (SN12C renal) | TGI (SN12C renal) | GI50 (T-47D breast) | TGI (T-47D breast) |
| --- | --- | --- | --- | --- | --- | --- | --- | --- | --- | --- | --- | --- | --- | --- | --- | --- | --- | --- | --- | --- |
| OCc1ccc(-c2csc(-c3ccc(CO)o3)c2)o1 | 0.018 µM | 0.0719 µM | 21.4 µM | > 80.7 µM | 31.1 µM | > 100 µM | 40.4 µM | > 100 µM | 11.6 µM | > 100 µM | 67.2 µM | > 100 µM | 34.9 µM | > 100 µM | 43.6 µM | > 100 µM | 88.7 µM | > 100 µM | 1.44 µM | 40 µM |
| CCn1c(-c2nonc2N)nc2c(C#CC(C)(C)O)ncc(OC3CCNCC3)c21 | 0.0958 µM | 13.4 µM | 8.78 µM | > 25 µM | 5.18 µM | > 25 µM | 7.08 µM | > 25 µM | 11.1 µM | > 25 µM | 20 µM | > 25 µM | > 23.7 µM | > 25 µM | 4.42 µM | 8.82 µM | 9.21 µM | > 25 µM | 1.21 µM | > 25 µM |
| O=C(CCCn1c2c(sc3ccccc32)c(=O)n2nnc(-c3ccccc3)c12)NCCc1cnc[nH]1 | 1.41 µM | 2.85 µM | 6.9 µM | 18.2 µM | 0.0368 µM |  | 1.26 µM | 3.41 µM | 0.0456 µM |  | 1.91 µM | 3.5 µM | 2.71 µM | 9.6 µM | 0.0346 µM | 2.79 µM | < 0.0105 µM | 2.01 µM | 0.638 µM | 10.5 µM |
| COc1ccc(-c2cc(/C=C3\C(=O)Nc4cc(Cl)ccc43)[nH]n2)cc1 | 2.38 µM | 7.04 µM | 7.02 µM | 62 µM | 2.24 µM | 28.9 µM | 8.72 µM | 68.7 µM | 1.56 µM | 32.3 µM | 4.09 µM | > 100 µM | 4.27 µM | > 100 µM | 1.88 µM | 6.77 µM | 6.69 µM | > 100 µM | 6.6 µM | > 100 µM |
| C/C(CCC(=O)O)=N/Nc1ccc([N+](=O)[O-])cc1 | > 100 µM | > 100 µM | 42.3 µM | > 100 µM | 0.696 µM | > 100 µM | 5.94 µM | > 100 µM | 0.563 µM | > 100 µM | 7.16 µM | > 100 µM | > 100 µM | > 100 µM | 0.738 µM | > 100 µM | > 100 µM | > 100 µM | 3.66 µM | > 100 µM |
| CN(C)C1CCN(Cc2ccc(NC(=O)c3cncc(C#Cc4cnc(N)c5ncccc45)c3)cc2C(F)(F)F)CC1 | 5.65 µM | 14.1 µM | 7.77 µM | 15.3 µM | 1.54 µM | 6.07 µM | 9.21 µM | 20.2 µM | 0.0158 µM | 1.02 µM | 0.742 µM | 1.61 µM | 7.9 µM | 19.9 µM | 9.86 µM | 26.5 µM | 8.94 µM | 18.1 µM | 11.6 µM | 43.8 µM |
| CN1CC=C(c2cc(NC(=O)Nc3ccc(Oc4ccnc(NC(=O)C5CC5)c4)c(F)c3)cc(C(F)(F)F)c2)CC1 | 2.05 µM | 3.9 µM | 1.6 µM | 3.87 µM | 0.126 µM | 0.702 µM | 0.281 µM | 1.97 µM |  |  | 0.176 µM | 0.806 µM | 0.172 µM | 0.712 µM | 0.828 µM | 1.84 µM | 0.159 µM | 1.27 µM | 1.37 µM | 3.99 µM |
| COc1cc2c(c(O)c1Cl)C(=O)c1c(O)cc(C[C@H](C)O)cc1[C@H]2[C@H]1c2cc(C[C@H](C)O)cc(O)c2C(=O)c2c1cc(OC)c(Cl)c2O |  |  | 2.51 µM and 14 µM | 59 µM and 55.1 µM |  | 75 µM and > 100 µM |  | 75 µM and > 100 µM |  | 75 µM and > 100 µM |  |  |  | 75 µM and 84.6 µM |  |  |  | 75 µM and > 100 µM |  |  |
| Cc1ccc([Se](=C(C(=O)c2ccccc2)C(=O)c2ccccc2)c2ccc(C)cc2)cc1 |  | 49 µM |  |  |  |  |  |  |  | 84.5 µM |  | 35.2 µM |  | 59.2 µM |  | 72.9 µM |  | 36.7 µM |  | > 100 µM |
| O=Cc1cccc2ccc3ccccc3c12 |  | 62.7 µM |  | 96.9 µM |  |  |  | 94 µM |  |  |  | 77.3 µM |  | 66.5 µM |  | 52 µM |  | 88.5 µM |  | 92.4 µM |
| N#CC(C#N)=NNc1ccc2cn[nH]c2c1 |  | > 100 µM |  | > 100 µM |  | 55 µM |  |  |  | > 100 µM |  | > 100 µM |  | 50 µM |  | 34.8 µM |  | 92.3 µM |  | > 100 µM |
| O=C(CN1CCN(Cc2ccccc2Cl)CC1)NC1CC(=O)c2c(Br)sc(Br)c21 (stereo not given) | 20.5 µM | 35.4 µM | 19.4 µM | 35.7 µM | 20.7 µM | 54.8 µM | 19.8 µM | 35.1 µM | 29.6 µM | > 100 µM | 21.1 µM | 39.8 µM |  |  | 2 µM | 5.06 µM | 19.1 µM | 35.9 µM | 21.6 µM | 43.9 µM |
| CC1CCC2C(C)C(=O)OC3OC4(C)CCC1C32OO4 (stereo not given) | > 100 µM | > 100 µM |  | > 100 µM |  | > 100 µM |  | > 100 µM |  | > 100 µM |  | > 100 µM | > 100 µM | > 100 µM |  | > 92.6 µM |  | > 100 µM |  |  |
| COc1cc(-c2cc3ncccc3c3nc(OCCN(C)C)c4cccnc4c23)cc(OC)c1OC |  |  | 0.665 µM | 3.19 µM | 0.714 µM | 8.09 µM | 0.727 µM | 3.1 µM | 0.339 µM | 4.63 µM |  |  | 0.619 µM | 3.31 µM | 0.457 µM | 2.78 µM | 0.581 µM | 3.09 µM | 0.769 µM | 37 µM |
| O=C([O][Hg][c]1ccccc1)c1ccccc1 | 1.85 µM | 7.33 µM | 1.23 µM | 2.64 µM | 0.324 µM | 2.24 µM | 2 µM | 3.82 µM | 1.11 µM | 4.74 µM | 1.86 µM | 4.62 µM | 2.05 µM | 4.84 µM | 0.275 µM | 0.754 µM |  |  | 0.475 µM | 2.43 µM |
